Tests used:
dermal tumours = assay: in vivo studies in mice, effects on dermal tumours; conditions: compared with ingenol mebutate
From the text: The exact mechanism of action of ingenol 3-(3,5-diethylisoxazole-4-carboxylate) continues to be investigated, but it is believed that ingenol 3-(3,5-diethylisoxazole-4-carboxylate) has a dual mechanism of action inducing cell death as well as stimulation of immune response.

actinic keratosis [1] = assay: Part 2 open-label trial, 0.018% gel once daily for three consecutive days, full face or 250 cm^2 chest, actinic keratosis; type: in vivo, human subjects; conditions: 3 consecutive days
Description: Part 2 is a study of the efficacy of the 0.018% dose identified in part 1 in a three day regimen.
In contrast to other similar trials conducted, this trial allows inclusion in the trial of hypertrophic and hyperkeratotic lesion, and separately, the efficacy for these lesions are evaluated.
The outcome for Part 2 is safety and efficacy in a once daily application for three consecutive days on the face/chest. The efficacy in treating of the AK will be measured as reduction in AK count in the treated area of lesions which are not considered hyperkeratotic/hypertrophic.
The reduction in AK count will be performed at week 4 and 8 no matter the type of lesion. Also complete clearance of AKs in the treated area which are not considered hyperkeratotic/hypertrophic at week 8 will be measured.
The trial medication applied is preferably a gel. The gel formulation comprises: isopropyl alcohol, hydroxyethyl cellulose, benzyl alcohol, citric acid monohydrate, sodium citrate dehydrate and water and active compound in a 0.018% concentration. For this particular trial, the dosing is two unit dose tubes daily, each containing 0.67 g.
To qualify for part 2 of the trial, the subjects must have 5-20 clinically visible and discrete AKs within full face or 250 cm^2 area on the chest. In addition to the requirement of 5-20 clinically typical, visible and discrete AKs within the selected treatment area, subjects may also have visible and discrete hyperkeratotic/hypertrophic lesions in this area. The subjects will be treated with a dose of 0.018% as a once daily three consecutive days treatment and followed for 8 weeks.
The trial consists of an initial part, where 18 subjects will be treated on face/chest. […] As this is a safety trial, it is considered justified to conduct this clinical trial as an open-label, uncontrolled trial. An early safety and tolerability evaluation will be performed following the 3 days treatment. If safety and tolerability is found acceptable by the Early Data Review Committee, and additional 44 subjects will be enrolled in order to expand safety observations and obtain an estimate of treatment efficacy.
The patients are scheduled for 7 visits: • Visit 1: within 21 days prior to day 1 • Visit 2: day 1 (application of trial medication) • Visit 3: day 4 (application of trial medication) • Visit 4: day 8 (±2 day) • Visit 5: week 2 (±2 day) • Visit 6: week 4 (±4 day) • Visit 7: week 8 (±7 day)
LSRs are evaluated at all visits following visit 1.
LSRs are evaluated at all visits following visit 1. AK lesion counts are performed on Visit 2, 6 and 7.
At Baseline (Day 1) and Visit 7 (Week 8), the investigator will make a clinical (visual and tactile) assessment of the extent of photo-damage in the treatment area with respect to 1) fine wrinkling, 2) coarse wrinkling, 3) mottled pigmentation, 4) roughness, 5) sallowness, 6) skin laxity, and 7) telangiectasia. Severity for each of these characteristics will be on a 5-point scale: None (0), Mild (1), Moderate (2), Severe (3), Extreme (4).
At Visit 7 (Week 8) the Investigator will make an overall clinical (visual and tactile) assessment of the subject's photo-damage change from baseline in the treatment area (including an integrated assessment of fine wrinkling, coarse wrinkling, mottled pigmentation, roughness, sallowness, skin laxity, and telangiectasia based on the subject's appearance at the baseline visit).
The scoring will be on a 7-point symmetric scale: Marked improvement (+3), Moderate improvement (+2), Minor improvement (+1), No change (0), Minor worsening (−1), Moderate worsening (−2), Marked worsening (−3).
At Visit 7 (Week 8), the subjects will complete a self-assessment questionnaire evaluating the change in the 1) overall appearance of the skin and 2) overall feel of the skin after treatment. The scoring will be on a 5-point scale: Much worsened, Somewhat worsened, No change, somewhat improved, much improved. […]

actinic keratosis [2] = assay: Part 1 dose escalation trial, once daily for two consecutive days, face/chest, actinic keratosis; type: in vivo, human subjects
From the text: Local skin reactions (LSRs) occur sometimes in the treated area. Often LSRs are quantified by a scale evaluating the following types of skin reactions: erythema, flaking/scaling, crusting, swelling, vasiculation/postulation, and erosion/ulceration which are categorized into categories 0-4 depending on the severity of the reactions.
In the trial pre-defined grades of LSRs will constitute Dose Limiting Toxicity.
Dose Limiting toxicity (DLT) is defined one or more of the following LSRs • crusting Grade 4 • Erosion/ulceration Grade 4 • vesiculation/postulation Grade 4 or
Two or more of the following five LSRs: • Erythema Grade 4 • Crusting Grade 3 • Swelling grade 4 • Erosion/ulceration Grade 3 • vesiculation/postulation Grade 3 or • other clinically relevant signs or symptoms observed, which the Investigator judges to be counted as a DLT.
Maximum tolerated dose (MTD) is declared as dose level at which less than 4 subjects out of experience a DLT of cohort of 12 subjects.
Part 1 was a dose escalation study conducted with a once daily application of trial medication for two consecutive days and continued until the MTD was identified.
Dose escalation proceeded if the safety and tolerability data of the subject up to day 8 was reviewed and considered satisfactory. The treatment consisted of once daily treatment for 2 consecutive days. Up to 5 different doses may be investigated in cohorts of 1 subject. The number of subjects in each cohort depended on the number of observed DLTs. However, the MTD was always be confirmed in a cohort of 12 subjects.
To be included in the trial, Part 1, the subjects must be at least 18 years of age.
Subjects who qualify for Part 1 of the trial must have 5 to 20 actinic keratosis on the face or chest. To be included in the trial part 2 the subjects must have 5-20 clinically typical, visible and discrete actinic keratosis on the face or chest
Part 1: Trial medication, ingenol 3-(3,5-diethylisoxazole-4-carboxylate) gel, will be applied to the treatment area once daily for two consecutive days until the maximum tolerated dose has been reached for each formulation. Up to five different doses of active compound in gel may be investigated in cohorts 12 subjects. Predefined grades of Local Skin Responses (LSRs) will constitute dose limiting toxicity (DLT). The maximum tolerated dose is defined as the highest dose level at which less than 4 out of 12 subjects experience a Dose limiting toxicity.
The doses will be administered in an escalating manner following review of safety and tolerability data performed by the dose escalation committee. Evaluation of the safety and tolerability data will be performed after Visit 5/day 8. Then subjects will be followed for 8 weeks after first application of investigational product.

[3] = at 0.018% dose, two day regimen

With `CCc1noc(CC)c1C(=O)O[C@H]1C(C)=C[C@]23C(=O)[C@@H](C=C(CO)[C@@H](O)[C@]12O)[C@H]1[C@@H](C[C@H]3C)C1(C)C` [ingenol 3-(3,5-diethylisoxazole-4-carboxylate)] the “efficacy in eliminating dermal tumours” value (dermal tumours) was “more efficacious than ingenol mebutate”, the “cosmetic outcome of the treatment” value (actinic keratosis [1]) was “good” and the side-effects (actinic keratosis [1]) was “acceptable”. For the same molecule, the “subjects reporting improvement in appearance and feel” value (actinic keratosis [1]; cosmetic outcome self-assessment) was “more than 90%”, the “patients with photo damage improved” value (actinic keratosis [1]; investigator assessment, fraction of patients) was “two-thirds” and the “time at which side-effects maximize” value (actinic keratosis [1]; rapid decline thereafter) was 4 days. For the same molecule, the complete clearance (actinic keratosis [1]; week 4, 63 patients) was 37%, the “reduction in AK count” value (actinic keratosis [1]; week 4, 63 patients) was 81% and the complete clearance (actinic keratosis [1]; week 8 (the same as week 4)) was 37%. For the same molecule, the “reduction in AK count” value (actinic keratosis [1]; week 8 (the same as week 4)) was 81%, the “application site adverse events” value (actinic keratosis [2]; [3]) was “minimal” and the “local skin reactions (LSRs)” value (actinic keratosis [2]; [3]) was “mild”. The “maximum tolerated dose (MTD)” value (actinic keratosis [2]; gel, once daily for 2 consecutive days, face/chest, MTD = highest dose with DLT in less than 4 of 12 subjects) was 0.018% and the “tolerability with respect to LSRs and application site reaction” value (actinic keratosis [2]; selected dose 0.018%, two days dosing regimen) was “well tolerated”.
